Data reported in US7589206B2, “Pyrrolopyridine derivatives” (Glaxo Group Limited, priority 2004, dated 2009).
pEC50: −log10 of the molar value. Entries after “also recorded” stand apart in the source; their conditions may differ. Where a name gives a salt, the structure may show the parent alone. Read-outs that look alike come from different tables or passages of the source.

Experiments:
Type in all cases: cell-based
[1] = target: T1, human cannabinoid CB2 receptor (Homo sapiens, UniProt P34972); test: Cannabinoid CB2 receptor agonist activity in yeast cells expressing the receptor (FDGlu fluorescence); conditions: for CB2 activity at the cloned human cannabinoid CB2 receptor (in words): b47 says only 'the assay used'
T1 construct: expressed in transfected cells; host or cells: Saccharomyces cerevisiae strain MMY23 (Gpa1/Galphai3 chimeric G-protein alpha subunit)
Protocol: The cannabinoid CB2 receptor agonist activity of compounds of formula (I) was determined in accordance with the following experimental method.
(§1) Yeast (Saccharomyces cerevisiae) cells expressing the human cannabinoid CB2 receptor were generated by integration of an expression cassette into the ura3 chromosomal locus of yeast strain MMY23. This cassette consisted of DNA sequence encoding the human CB2 receptor flanked by the yeast GPD promoter to the 5′ end of CB2 and a yeast transcriptional terminator sequence to the 3′ end of CB2. MMY23 expresses a yeast/mammalian chimeric G-protein alpha subunit in which the C-terminal 5 amino acids of Gpa1 are replaced with the C-terminal 5 amino acids of human Gαi3 (as described in Brown et al. (2000), Yeast 16:11-22). Cells were grown at 30° C. in liquid Synthetic Complete (SC) yeast media (Guthrie and Fink (1991), Methods in Enzymology, Vol. 194) lacking uracil, tryptophan, adenine and leucine to late logarithmic phase (approximately 6 OD600/m).
Agonists were prepared as 10 mM solutions in DMSO. EC50 values (the concentration required to produce 50% maximal response) were estimated using dilutions of between 3- and 5-fold (BiomekFX, Beckman) into DMSO. Agonist solutions in DMSO (1% final assay volume) were transferred into black microtitre plates from NUNC (96- or 384-well). Cells were suspended at a density of 0.2 OD600/ml in SC media lacking histidine, uracil, tryptophan, adenine and leucine and supplemented with 10 mM 3-aminotriazole, 0.1M sodium phosphate pH 7.0, and 20μM fluorescein di-β-D-glucopyranoside(FDGlu). This mixture (50 ul per well) was added to agonist in the assay plates (Multidrop 384, Labsystems). After incubation at 30° C. for 24 hours, fluorescence resulting from degradation of FDGlu to fluorescein due to exoglucanase, an endogenous yeast enzyme produced during agonist-stimulated cell growth, was determined using a fluorescence microtitre plate reader (Tecan Spectrofluor or LJL Analyst excitation wavelength: 485 nm; emission wavelength: 535 nm). Fluorescence was plotted against compound concentration and iteratively curve fitted using a four parameter fit to generate a concentration effect value. Efficacy (Emax) was calculated from the equation Emax=Max[compound X]−Min[compound X]/Max[HU210]−Min[HU210]×100%
(§2) where Max[compound X] and Min[compound X] are the fitted maximum and minimum respectively from the concentration effect curve for compound X, and Max[HU210] and Min[HU210] are the fitted maximum and minimum respectively from the concentration effect curve for (6aR,10aR)-3-(1,1′-Dimethylheptyl)-6a,7,10,10a-tetrahydro-1-hydroxy-6,6-dimethyl-6H-dibenzo[b,d]pyran-9-methanol (HU210; available from Tocris). Equieffective molar ratio (EMR) values were calculated from the equation EMR=EC50 [compound X]/EC50 [HU210]
(§3) Where EC50 [compound X] is the EC50 of compound X and EC50 [HU210] is the EC50 of HU210.

[2] = target: T2, human recombinant CB2 receptors (Homo sapiens, UniProt P34972); test: CB2 agonist effects in a reporter gene assay (CHO-K1 CB2 CRE-LUC cells, inhibition of forskolin response); conditions: 'active except' = excluded from the actives, i.e. not active
T2 construct: expressed in transfected cells; host or cells: CHO-K1 CB2 CRE-LUC cells
Protocol: CB2 agonist effects were determined using a reporter gene assay. These studies were performed using a CHO-K1 cell line expressing human recombinant CB2 receptors (CHO-K1 CB2 CRE-LUC cells). These cells additionally express a “CRE-LUC” reporter gene construct comprising the gene for luciferase under the control of multiple cAMP response element binding protein promoters. In these cells, increases in intracellular cAMP levels leads to transcription of the luciferase gene and the subsequent production of luciferase. The expression of luciferase is measured by addition to the cells of a proprietary mixture containing luciferin, the substrate for luciferase (Luclite, Perkin Elmer, Cat No 6016919). The resultant reaction leads to the generation of light which is measured in a TopCount scintillation counter. […]
CHO-K1 CB2 CRE-LUC cells were grown in DMEM/F12 plus glutamax I medium (Gibco Cat. No. 31331-028), supplemented with 9% FBS (Gibco, Cat. No. 16000-040) and 0.5 mg·ml^−1 G418 (Gibco, Cat. No. 10131-027) and 0.5 mg·ml^−1 Hygromycin (Invitrogen, Cat. No. 10687-010). […] Finally, luminescence was measured using a Packard TopCount scintillation counter. Data Analysis For each compound maximal inhibition of the forskolin response and the EC50 for this effect was determined. […]

[3] = target: T3, human cannabinoid CB1 receptor (Homo sapiens, UniProt P21554); test: Cannabinoid CB1 receptor agonist activity in yeast cells expressing the receptor (FDGlu fluorescence); conditions: yeast assay, individual values of the exceptions; for pEC50: read-out: EC50 at the cloned human cannabinoid CB1 receptor; for Emax: relative to HU210, read-out: efficacy (Emax) at the cloned human cannabinoid CB1 receptor
T3 construct: expressed in transfected cells; host or cells: Saccharomyces cerevisiae strain MMY23 (Gpa1/Galphai3 chimeric G-protein alpha subunit)
Protocol: The cannabinoid CB1 receptor agonist activity of compounds of formula (I) was determined in accordance with the following experimental method.
as §1, with “CB1” for “CB2”, “CB1.” for “CB2.”, “OD600/ml).” for “OD600/m).”
Agonists were prepared as 10 mM stocks in DMSO. EC50 values (the concentration required to produce 50% maximal response) were estimated using dilutions of between 3- and 5-fold (BiomekFX, Beckman) into DMSO. Agonist solutions in DMSO (1% final assay volume) were transferred into black, clear bottom, microtitre plates from NUNC (96- or 384-well). Cells were suspended at a density of 0.2 OD600/ml in SC media lacking histidine, uracil, tryptophan, adenine and leucine and supplemented with 10 mM 3-aminotriazole, 0.1M sodium phosphate pH 7.0, and 20 μM fluorescein di-β-D-glucopyranoside (FDGlu). This mixture (50 ul per well for 384-well plates, 200 ul per well for 96-well plates) was added to agonist in the assay plates (Multidrop 384, Labsystems). After incubation at 30° C. for 24 hours, fluorescence resulting from degradation of FDGlu to fluorescein due to exoglucanase, an endogenous yeast enzyme produced during agonist-stimulated cell growth, was determined using a Spectrofluor microtitre plate reader (Tecan; excitation wavelength: 485 nm; emission wavelength: 535 nm). Fluorescence was plotted against compound concentration and iteratively curve fitted using a four parameter fit to generate a concentration effect value. Efficacy (Emax) was calculated from the equation Emax=Max[compound X]−Min[compound X]/Max[HU210]−Min[HU210]×100%
as §2, §3

T3 sequence (P21554 whole entry): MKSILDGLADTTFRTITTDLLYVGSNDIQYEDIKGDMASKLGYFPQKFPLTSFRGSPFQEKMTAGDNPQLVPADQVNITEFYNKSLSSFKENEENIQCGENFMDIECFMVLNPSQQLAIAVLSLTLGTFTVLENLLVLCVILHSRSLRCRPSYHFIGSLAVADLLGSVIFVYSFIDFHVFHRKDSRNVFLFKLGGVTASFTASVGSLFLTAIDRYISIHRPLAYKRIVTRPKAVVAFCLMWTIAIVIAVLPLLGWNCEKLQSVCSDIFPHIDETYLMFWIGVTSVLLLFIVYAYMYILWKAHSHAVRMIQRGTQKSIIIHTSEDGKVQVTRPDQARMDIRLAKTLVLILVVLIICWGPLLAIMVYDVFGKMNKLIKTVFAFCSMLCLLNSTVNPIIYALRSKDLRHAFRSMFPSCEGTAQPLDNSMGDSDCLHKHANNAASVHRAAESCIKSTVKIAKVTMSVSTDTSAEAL
T1 sequence (P34972 whole entry): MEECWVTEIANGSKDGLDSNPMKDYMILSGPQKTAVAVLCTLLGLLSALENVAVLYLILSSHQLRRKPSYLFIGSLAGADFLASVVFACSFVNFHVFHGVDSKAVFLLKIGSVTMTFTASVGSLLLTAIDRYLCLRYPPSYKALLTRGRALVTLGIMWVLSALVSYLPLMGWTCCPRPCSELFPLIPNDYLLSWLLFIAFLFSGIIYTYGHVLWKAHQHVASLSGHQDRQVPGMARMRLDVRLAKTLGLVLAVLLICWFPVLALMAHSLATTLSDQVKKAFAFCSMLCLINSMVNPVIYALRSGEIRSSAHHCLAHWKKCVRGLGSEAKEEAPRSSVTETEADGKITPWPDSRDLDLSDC
T2 sequence (P34972 whole entry): as above

Compound	pEC50 [1]	pEC50 [3]	Emax [3]	also measured
Cc1c[nH]c2c(N3CCOCC3)ncc(C(=O)NC3CCOCC3)c12.Cl [Example 22, 3-methyl-7-morpholin-4-yl-1H-pyrrolo[2,3-c]pyridine-4-carboxylic acid (tetrahydro-pyran-4-yl)-amide]				CB2 activity at the cloned human cannabinoid CB2 receptor (in words) ([1]; yeast assay): inactive; also recorded: did not appear to have CB2 activity; CB2 agonist activity in reporter gene assay (in words) [2]: active except
Cc1c[nH]c2c(N3CCOCC3)ncc(C(=O)NCC3CCOCC3)c12.Cl [Example 23, 3-methyl-7-morpholin-4-yl-1H-pyrrolo[2,3-c]pyridine-4-carboxylic acid (tetrahydro-pyran-4-ylmethyl)-amide]				CB2 activity at the cloned human cannabinoid CB2 receptor (in words) ([1]; yeast assay): inactive; also recorded: did not appear to have CB2 activity; CB2 agonist activity in reporter gene assay (in words) [2]: active except
CN(c1cccc(Cl)c1)c1ncc(C(=O)NCC2CCC2)c2c1ccn2C [Example 67, 4-[(3-Chloro-phenyl)-methyl-amino]-1-methyl-1H-pyrrolo[3,2-c]pyridine-7-carboxylic acid cyclobutylmethyl amide hydrochloride]	6.00 to 6.52			
COc1ccccc1Nc1ncc(C(=O)N2CCOCC2)c2c(C)c[nH]c12 [Example 72, 1-[7-(2-Methoxy-phenylamino)-3-methyl-1H-pyrrolo[2,3-c]pyridin-4-yl]-1-morpholin-4-yl-methanone hydrochloride salt]	6.00 to 6.52			
Cn1ccc2c(Nc3cc(Cl)cc(Cl)c3)ncc(C(=O)N3CCOCC3)c21 [Example 124, N-(3,5-Dichlorophenyl)-1-methyl-7-(4-morpholinylcarbonyl)-1H-pyrrolo[3,2-c]pyridin-4-amine hydrochloride]		6.29	75%	
Cn1ccc2c(Nc3ccc(C#N)c(Cl)c3)ncc(C(=O)N3CCOCC3)c21 [Example 130, 2-Chloro-4-{[1-methyl-7-(4-morpholinylcarbonyl)-1H-pyrrolo[3,2-c]pyridin-4-yl]amino}benzonitrile hydrochloride]		6.05	30%	
Cn1ccc2c(Nc3ccc(C#N)c(Br)c3)ncc(C(=O)N3CCOCC3)c21 [Example 162, 2-Bromo-4-{[1-methyl-7-(4-morpholinylcarbonyl)-1H-pyrrolo[3,2-c]pyridin-4-yl]amino}benzonitrile hydrochloride]		6.10	33%	
Cc1cc(F)ccc1Nc1ncc(C(=O)N2CCOCC2)c2c1ccn2C [Example 183, N-(4-Fluoro-2-methylphenyl)-1-methyl-7-(4-morpholinylcarbonyl)-1H-pyrrolo[3,2-c]pyridin-4-amine hydrochloride]				pEC50 ([1]; yeast assay, read-out: EC50 at the cloned human cannabinoid CB2 receptor): 6.00 to 6.52
Cc1ccc(Nc2ncc(C(=O)N3CCOCC3)c3c2ccn3C)c(C)c1 [Example 184, N-(2,4-Dimethylphenyl)-1-methyl-7-(4-morpholinylcarbonyl)-1H-pyrrolo[3,2-c]pyridin-4-amine hydrochloride]	6.00 to 6.52			
Cn1ccc2c(Nc3cccc(Cl)c3)ncc(C(=O)N3CCSCC3)c21 [Example 237, N-(3-Chlorophenyl)-1-methyl-7-(4-thiomorpholinylcarbonyl)-1H-pyrrolo[3,2-c]pyridin-4-amine]		6.13	92%	
